Experimental data published in article PMC11509018, “Evaluation of the Role of Tanshinone I in an In Vitro System of Charcot-Marie-Tooth Disease Type 2N” (International Journal of Molecular Sciences, 2024).

Target: T1, AlaRS R329H binding to GST-Nrp1 b1 (Homo sapiens, UniProt P49588, R329H)
T1 construct: made in house; host or cells: E. coli BL21 (DE3), pET-21a for AlaRS
T1 sequence (P49588 1-968 R329H): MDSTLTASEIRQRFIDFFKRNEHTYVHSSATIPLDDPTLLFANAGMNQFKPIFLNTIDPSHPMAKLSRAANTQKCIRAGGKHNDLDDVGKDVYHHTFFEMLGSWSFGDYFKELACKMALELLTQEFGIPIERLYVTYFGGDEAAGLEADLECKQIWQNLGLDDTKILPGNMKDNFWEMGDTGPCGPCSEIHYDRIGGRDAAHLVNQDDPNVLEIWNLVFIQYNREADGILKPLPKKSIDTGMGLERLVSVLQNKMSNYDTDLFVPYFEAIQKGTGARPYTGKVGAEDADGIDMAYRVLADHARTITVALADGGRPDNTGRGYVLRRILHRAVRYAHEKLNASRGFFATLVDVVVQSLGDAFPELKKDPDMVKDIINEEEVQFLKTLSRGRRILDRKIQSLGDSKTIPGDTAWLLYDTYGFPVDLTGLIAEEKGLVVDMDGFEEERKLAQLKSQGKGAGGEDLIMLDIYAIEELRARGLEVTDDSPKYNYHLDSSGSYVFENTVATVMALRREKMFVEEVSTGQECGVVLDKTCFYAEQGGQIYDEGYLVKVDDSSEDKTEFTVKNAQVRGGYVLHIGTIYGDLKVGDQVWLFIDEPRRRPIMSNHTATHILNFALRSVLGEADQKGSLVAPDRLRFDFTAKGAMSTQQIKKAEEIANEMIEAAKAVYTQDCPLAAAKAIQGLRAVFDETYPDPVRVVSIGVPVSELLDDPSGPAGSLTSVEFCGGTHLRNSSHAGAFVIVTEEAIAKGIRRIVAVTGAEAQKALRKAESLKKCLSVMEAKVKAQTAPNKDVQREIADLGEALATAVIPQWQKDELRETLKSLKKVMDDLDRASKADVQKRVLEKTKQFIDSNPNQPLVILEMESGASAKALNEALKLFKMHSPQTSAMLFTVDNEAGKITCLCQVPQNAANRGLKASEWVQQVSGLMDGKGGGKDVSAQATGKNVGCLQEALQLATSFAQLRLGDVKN
Assay: GST pull down assay
Conditions: 20 µM Tanshinone I, ImageJ, average of three repeats
Experimental: To further investigate whether Tanshinone I-induced conformational changes in AlaRS CMT mutants affect their interaction with Nrp1, Co-IP experiments were performed in cells treated with Tanshinone I. By comparing Co-IP results obtained before and after treatment, we assessed the influence of the drug on the binding strength and mode between the AlaRS CMT mutants and Nrp1. […] To confirm the direct effect of Tanshinone I on the interaction between AlaRS CMT mutants and Nrp1, pull-down experiments were performed. […] Given that the interaction between AlaRS mutants and Nrp1 is associated with disease progression in CMT, the ability of Tanshinone I to disrupt this binding highlights its potential to intervene in the pathogenic mechanisms of these diseases.
Figure 7 The impact of Tanshinone I on the interaction between AlaRS mutants and Nrp1. (A) Co-IP assays were conducted to assess the binding between HA-AlaRS mutants and Nrp1, both with and without treatment with 20 µM Tanshinone I for 24 h. […] (C) Pull down assay was performed to detect the binding between AlaRS mutants and GST-Nrp1 b1 with or without 20 µM Tanshinone I. (D) Relative quantification statistics of the AlaRS mutants pulled down from the GST pull down experiments after Tanshinone I treatment were performed using ImageJ. (E) The cell viability of 293T and NSC34 cells treated with different concentrations of Tanshinone I was assessed using the CCK-8 assay over a 24 h period. TEXT PRINTED IN THE PICTURE: (B) Tanshinone I: Mean density band (N71Y): 0.60; Mean density band (G102R): 0.53; Mean density band (R326W): 0.50; Mean density band (R329H): 0.50; Mean density band (E337K): 0.62 | (D) Tanshinone I: Mean density band (N71Y): 0.82; Mean density band (G102R): 0.76; Mean density band (R326W): 0.84; Mean density band (R329H): 0.84; Mean density band (E337K): 0.90
To detect the direct interactions between the mutant proteins and Nrp1 in vitro, we performed a Glutathione S-transferase (GST) pull-down assay. AlaRS mutants fused with 6 × His were purified with Ni-NTA beads, followed by chromatography on a HiTrap Q HP column. Nrp1 b1 fragments fused with GST were purified with Glutathione Beads (#SA008100, Smart-Lifesciences, Changzhou, China). For GST pull-down assays, 1000 μg of each GST-fused Nrp1 b1 fragment was mixed with 200 μg of 6 × His-tagged fusion protein in binding buffer (50 mM Tris-HCl pH 7.5, 20 mM NaCl, 5% glycerol, 5 mM DTT with 0.1% BSA) at 4 °C overnight. The mixture was next incubated with 30 μL glutathione beads at 4 °C with constant rotation for 2–4 h. Subsequently, the bead/protein complex was washed three times, and eluted with 30 μL 2 × SDS sample buffer. The samples were then subjected to SDS-PAGE analysis. The experiment was repeated three times.

SMILES: Cc1coc2c1C(=O)C(=O)c1c-2ccc2c(C)cccc12 [Tanshinone I]
- Mean density band (R329H), relative quantification of AlaRS mutant pulled down: 0.84
